Data taken from article PMC6269309 (Haematologica, 2018).
Read-outs that look alike come from different tables or passages of the source.

Experiments:
[1] = test system: GPVI-mediated platelet aggregation (washed platelets, CRP); experiment: Light transmission aggregometry, washed platelets stimulated with CRP; type: cell-based, human
[2] = test system: ATP secretion of washed platelets; experiment: Granule release; type: cell-based, human
[3] = test system: Ca2+ mobilization in platelets; experiment: Measurement of [Ca2+]i in Fura-2-loaded platelets stimulated with CRP; type: cell-based, human
[4] = test system: Btk pY223; type: cell-based, human
[5] = test system: PLCγ2 pY753, pY759, pY1217; experiment: Protein phosphorylation, western blot of CRP-stimulated washed platelets: PLCγ2; type: cell-based, human
[6] = test system: Src pY418; type: cell-based, human
[7] = test system: Syk pY525/6; type: cell-based, human
[8] = test system: LAT pY200; type: cell-based, human
[9] = test system: SLP-76 pY145; type: cell-based, human
[10] = test system: Btk pY551; type: cell-based, human
[11] = test system: Tec; experiment: Tec phosphorylation, immunoprecipitation and blotting with 4G10; type: cell-based, human; settings: washed platelets 8x10^8/mL, CRP 10 μg/mL 180 s
[12] = test system: NFAT signaling in DT40 cells; type: cell-based, chicken; settings: collagen 10 μg/mL, no serum
[13] = test system: GPVI-induced platelet aggregation; type: in vivo, human; settings: CLL patients, ibrutinib 420 mg once daily or acalabrutinib 100 mg twice daily, PRP, 2-3 h after dose, CRP 10 μg/mL
[14] = test system: PLCγ2 pY1217; experiment: Ex vivo PLCγ2 pY1217 phosphorylation in washed platelets of treated patients; design: species or system human; settings: CLL patients, ibrutinib 420 mg once daily or acalabrutinib 100 mg twice daily
[15] = test system: platelet aggregation induced by ADP and PAR1 peptide; type: in vivo, human; settings: patients taking either inhibitor, data not shown
[16] = test system: whole cell tyrosine phosphorylation; experiment: Whole cell tyrosine phosphorylation in CRP-stimulated washed platelets; type: cell-based, human
[17] = cited from earlier work
[18] = cited from earlier work; remark: listed apart in the source
[19] = test system: Btk; settings: doses of 2.5 mg/kg; cited from earlier work
[20] = test system: Btk pY223; settings: CLL patients, ibrutinib 420 mg once daily or acalabrutinib 100 mg twice daily
[21] = cited from earlier work; remark: listed apart in the source
[22] = test system: Btk; settings: cited from earlier work
[23] = higher concentrations, up to 200 μM

Structure (SMILES): C=CC(=O)N1CCC[C@@H](n2nc(-c3ccc(Oc4ccccc4)cc3)c3c(N)ncnc32)C1 [ibrutinib]
- Response to a sub-maximal concentration of CRP ([1]; 70 nM): reduced response
- Aggregation in response to a high concentration of CRP ([1]; 70 nM, incubation ≥5 min, CRP 10 μg/mL): time-dependent delay in aggregation
- Aggregation in response to a high dose of CRP ([1]; 700 nM, incubation ≥30 s, CRP 10 μg/mL): block aggregation
- ATP secretion in response to a high concentration of CRP ([2]; 70 nM): no effect
- ATP secretion in response to a high concentration of CRP ([2]; 700 nM): blocked
- Peak Ca2+ concentration after a high concentration of CRP ([3]; 70 nM): not altered
- Peak Ca2+ concentration after a high concentration of CRP ([3]; 700 nM): markedly reduced
- Autophosphorylation of Btk ([4]; 70 nM, CRP 10 μg/mL): reduced to basal levels
- Reversibility of inhibition of Btk pY223 autophosphorylation ([4]; two washing steps before CRP): irreversible
- Phosphorylation of downstream PLCγ2 ([5]; 70 nM, CRP 10 μg/mL): reduced to basal levels
- Reversibility of inhibition of PLCγ2 pY753 and pY1217 ([5]; two washing steps before CRP): irreversible
- Phosphorylation of Src Y418 ([6]; 70 nM, CRP 10 μg/mL): not altered
- Reversibility of inhibition of Src pY418 ([6]; two washing steps before CRP): reversible
- Phosphorylation of Syk Y525/6 ([7]; 70 nM, CRP 10 μg/mL): not altered
- Dose at which inhibition of Syk Y525/6 phosphorylation was seen ([7]; CRP 10 μg/mL): 7 µM
- Phosphorylation of LAT Y200 ([8]; 70 nM, CRP 10 μg/mL): not altered
- Dose at which inhibition of LAT Y200 phosphorylation was seen ([8]; CRP 10 μg/mL): 7 µM
- Phosphorylation of SLP-76 Y145 ([9]; 70 nM, CRP 10 μg/mL): not altered
- Dose at which inhibition of SLP-76 Y145 phosphorylation was seen ([9]; CRP 10 μg/mL): 7 µM
- Phosphorylation of Btk on Y551 ([10]; 70 nM, CRP 10 μg/mL): not altered
- Dose at which inhibition of Btk Y551 phosphorylation was seen ([10]; CRP 10 μg/mL): 7 µM
- Concentration giving full blockade of Tec phosphorylation [11]: 7 µM
- Concentration giving partial blockade of Tec phosphorylation [11]: 170 nM
- NFAT signaling, WT and KD Btk transfected cells ([12]; high dose (range 0.5-10 μM)): blocked NFAT signaling
- NFAT signaling, cells transfected with WT or KD Btk ([12]; low dose (range 0.5-10 μM)): had no effect
- GPVI-induced platelet aggregation ex vivo [13]: blocked
- Phosphorylation of PLCγ2 pY1217 ex vivo [14]: complete inhibition
- Platelet aggregation induced by ADP and PAR1 peptide ex vivo [15]: not altered
- Dose at which inhibition of whole cell phosphorylation was seen ([16]; CRP 10 μg/mL): 7 µM
- Reversibility of inhibition of global tyrosine phosphorylation ([16]; two washing steps before CRP): reversible on washout
- Bound to plasma proteins [17]: 97%
- Initial half-life [18]: 2 to 3 h
- Terminal half-life [18]: 4 to 8 h
- Btk occupancy [19]: > 95%

Structure (SMILES): CC#CC(=O)N1CCC[C@H]1c1nc(-c2ccc(C(=O)Nc3ccccn3)cc2)c2c(N)nccn12 [acalabrutinib]
- Onset of aggregation ([1]; 2 μM, CRP): slight delay in aggregation
- Overall magnitude of aggregation response ([1]; 2 μM, CRP): no effect
- Tyrosine phosphorylation of Btk on Y223 ([4]; 2 μM, CRP 10 μg/mL): blocked
- Tyrosine phosphorylation of PLCγ2 on Y759 and Y1217 ([5]; 2 μM, CRP 10 μg/mL): blocked
- Phosphorylation of Src Y418 [6, 23]: had no effect
- Phosphorylation of Syk Y525/6 [7, 23]: had no effect
- Phosphorylation of LAT Y200 [8, 23]: had no effect
- Phosphorylation of SLP-76 Y145 [9, 23]: small reduction
- Phosphorylation of Btk Y551 [10, 23]: small reduction
- Concentration giving full blockade of Tec phosphorylation [11]: 200 µM
- Concentration giving partial inhibition of Tec phosphorylation [11]: approximately 1 μM
- GPVI-induced platelet aggregation ex vivo [13]: not blocked
- Phosphorylation of PLCγ2 pY1217 ex vivo [14]: complete inhibition
- Platelet aggregation induced by ADP and PAR1 peptide ex vivo [15]: not altered
- Autophosphorylation of Btk pY223 ex vivo [20]: complete inhibition
- Half-life [18]: 1 h
- Mean peak free drug concentration in patients ([18]; patients): 1.3 µM
- Major hemorrhage in treated patients [21]: not seen
- IC50 for Btk relative to ibrutinib (lower) [22]: 5 fold
- Potency as an inhibitor of Btk relative to ibrutinib (lower) [22]: 5 fold
